Data as given in patent US5145960A, “Pyrimidinyl tetrahydrofurans” (priority 1991, dated 1992).

Assays:
Format in all cases: cell-based
[1] = test system: VZV (varicella-zoster virus), strain Ellen; test: VZV (strain Ellen) plaque reduction in WI-38 cell monolayers; settings: Human alphaherpesvirus 3; WI-38 cells; at least 50% plaque reduction; 5-7 days at 37° C.; read-out: ID50 VZV (strain Ellen)
[2] = test system: HSV-1 (herpes simplex virus type 1); test: HSV-1 (strain schooler) plaque reduction in WI-38 cell monolayers; settings: Human alphaherpesvirus 1, 96 h; WI-38 cells; at least 50% plaque reduction; 4 days at 37° C.; read-out: ID50 HSV-1 (strain schooler)
[3] = test system: HCMV (human cytomegalovirus); test: HCMV (strain AD169) plaque reduction in WI-38 cell monolayers; settings: Human betaherpesvirus 5, AD169; WI-38 cells; at least 50% plaque reduction; 5-7 days at 37° C.; read-out: ID50 HCMV (strain AD169)
VV (vaccinia virus) = test: microbe, parasite or virus in culture; settings: Orthopoxvirus vaccinia, WI-38, 96 h, read-out: ID50 VV (strain CL)
[4] = test system: HSV-2 (herpes simplex virus type 2); test: HSV-2 (strain 186) plaque reduction in WI-38 cell monolayers; settings: Human alphaherpesvirus 2, 96 h; WI-38 cells; at least 50% plaque reduction; 4 days at 37° C.; read-out: ID50 HSV-2 (strain 186)
[5] = test system: VZV (varicella-zoster virus), strain Oka; test: VZV (strain Oka) plaque reduction in WI-38 cell monolayers; settings: Human alphaherpesvirus 3, WI-38, read-out: ID50 VZV (strain Oka)

Compound	IC50 [1] [µM]	IC50 [2] [µM]	IC50 [3] [µM]	IC50 (VV (vaccinia virus)) [µM]	IC50 [4] [µM]	IC50 [5] [µM]
Nc1nc2c(ncn2[C@@H]2CO[C@H](CO)[C@H]2CO)c(=O)[nH]1 [Example 1, [3S-(3α,4β,5α)]-2-Amino-1,9-dihydro-9-[tetrahydro-4,5-bis(hydroxymethyl)-3-furanyl]-6H-purin-6-one]	18 to 36	7	356	> 356	1.8	–
Nc1ncnc2c1ncn2[C@@H]1CO[C@H](CO)[C@H]1CO [Example 2, [3S-(3α,4β,5α)]-9-[Tetrahydro-4,5-bis(hydroxymethyl)-3-furanyl]-9H-purin-6-amine]	1.9 to 3.8	3.8 to 7.5	1.9 to 3.8	8 to 19	3.8 to 7.5	–
Cc1cn([C@@H]2CO[C@H](CO)[C@H]2CO)c(=O)[nH]c1=O [Example 3, [3S-(3α,4β,5α)]-5-Methyl-1-[tetrahydro-4,5-bis(hydroxymethyl)-3-furanyl]-2,4(1H,3H)-pyrimidinedione]	8 to 19	2 to 4	> 390	–	195 to 390	–
O=c1ccn([C@@H]2CO[C@H](CO)[C@H]2CO)c(=O)[nH]1 [Example 4, [3S-(3α,4β,5α)]-1-[Tetrahydro-4,5-bis(hydroxymethyl)-3-furanyl]-2,4(1H,3H)-pyrimidinedione]	41 to 103	> 413	> 413	–	> 413	–
O=c1[nH]c(=O)n([C@@H]2CO[C@H](CO)[C@H]2CO)cc1I [Example 5, [3S-(3α,4β,5α)]-5-Iodo-1-[tetrahydro-4,5-bis(hydroxymethyl)-3-furanyl]-2,4(1H,3H)-pyrimidinedione]	27 to 68	68 to 136	> 272	–	> 272	–
Nc1ccn([C@@H]2CO[C@H](CO)[C@H]2CO)c(=O)n1 [Example 6, [3S-(3α,4β,5α)]-4-Amino-1-[tetrahydro-4,5-bis(hydroxymethyl)-3-furanyl]-2(1H)-pyrimidinone]	0.2 to 0.4	21 to 41	41 to 104	41 to 415	21 to 41	–
O=c1[nH]c(=O)n([C@@H]2CO[C@H](CO)[C@H]2CO)cc1/C=C/Br [Example 7, [3S-(3α(E),4β,5α)]-5-(2-Bromoethenyl)-1-[tetrahydro-4,5-bis(hydroxymethyl)-3-furanyl]-2,4(1H,3H)-pyrimidinedione]	> 288	1.4 to 2.8	> 288	–	> 288	1.4
Cc1cn([C@@H]2CO[C@H](CO)[C@H]2CO)c(=O)nc1N [Example 8, [3S-(3α,4β,5α)]-4-Amino-5-methyl-1-[tetrahydro-4,5-bis(hydroxymethyl)-3-furanyl]-2(1H)-pyrimidinone]	40	293	> 392	–	392	–
Nc1nc(=O)n([C@@H]2CO[C@H](CO)[C@H]2CO)cc1I [Example 9, [3S-(3α,4β ,5α)]-4-Amino-5-iodo-1-[tetrahydro-4,5-bis(hydroxymethyl)-3-furanyl]-2(1H)-pyrimidinone]	5 to 14	68 to 136	> 272	–	> 272	–
